Measured values as given in patent US20150376235A1, “Peptides for the Treatment of Immune Reconstitution Inflammatory Syndrome (IRIS) and Related Diseases” (priority 2014, published 2015).
Non-standard residues stand in square brackets, D forms with d. No end group written: not given here.

Key:
[1] = system: inflammatory cytokines, chemokines, and receptors; conditions: Rat; oral gavage 0.05-1 mg/kg, 7 days
Source text: The specific experimental details are provided in Padi, 2012.

[2] = Pharmacokinetic study following intravenous and oral administration, LC-MS/MS of plasma; assay type: in vivo, male Sprague Dawley rat
Description: A pharmacokinetic study of all-D [TTNYT] (RAP-103) (SEQ ID NO:2) following intravenous and oral administration was conducted at a target dose level of 1 mg/kg in the male Sprague Dawley rat. The concentration of RAP-103 in each plasma and brain sample was measured using a suitable LC-MS/MS assay. The assay used was a research grade assay (RGA-1) which was established by assessing the accuracy, precision and the linearity of the method. Plasma concentrations generated were used to evaluate the pharmacokinetic parameters of all-D-TTNYT (RAP-103).
The dose formulation was administered intravenously to multiple animals as a slow bolus over ca 30 s via the tail vein and to a different group of animals orally via gastric gavage at a target dose volume of 1 mL/kg, to achieve a target dose level of 1 mg/kg. The dose volume administered was calculated according to the bodyweight of the animal on the day of dosing. The weight of administered dose was recorded. […] Results expressed as ng/mL

CCR2 = CCR2 (Homo sapiens, UniProt P41597); conditions: 30 min pretreatment; human MCP-1 50 ng/mL, 90 min; cited from earlier work
[3] = system: inflammatory cytokines, chemokines, and receptors; conditions: Rat; oral gavage 0.05-1 mg/kg, 7 days; cited from earlier work
[4] = system: rats with partial ligation of the sciatic nerve; conditions: cited from earlier work
CCR5 = CCR5 (Homo sapiens, UniProt P51681); conditions: 30 min pretreatment; human MIP-1β 50 ng/mL, 90 min; cited from earlier work
inflammatory cytokines = conditions: Hu; cited from earlier work
CCR2 (MCP-1) = molecular target: T1, CCR2 (MCP-1) (Homo sapiens, UniProt P41597); assay: CCR2 (MCP-1) elicited chemotaxis of human monocytes, all-D-pentapeptides (FIG. 4); assay type: cell-based; conditions: 20 pM peptide 30 minutes; MCP-1 0.6 nM, 2 hours
T1 construct: Purified human monocytes were treated with 20 pM of All-D-pentapeptides for 30 minutes; endogenous in cells; host or cells: purified human monocytes
Description: Purified human monocytes were treated with 20 pM of All-D-pentapeptides for 30 minutes prior to chemotaxis against human MCP-1 (0.6 nM) for 2 hours. […] A representative experiment is shown comprising triplicate determinations and is presented as relative fluorescence units, Mean±SEM.

MCP-1/CCR2 = molecular target: T2, MCP-1/CCR2 (Homo sapiens, UniProt P41597); assay: MCP-1/CCR2 elicited β-integrin-mediated adhesion of human monocytes to human fibronectin (FIG. 5); assay type: cell-based; conditions: 10 minutes pretreatment
T2 construct: endogenous in cells; host or cells: human monocytes
Description: The results are of interest as approved treatments for MS include the immunosupressive monoclonal antibody therapy “Tysabri”, which blocks T cell binding to cellular integrins, and thereby infiltration of inflammatory cells into brains of MS patients.
All-D-(IDNYT) Inhibition of Human Monocyte and THP-1 Cell β-Integrin-Mediated Adhesion to hu-Fibronectin
Human monocytes were treated with the indicated doses of all-D-(IDNYT) for 10 minutes prior to adherence to the β-integrin human fibronectin. Data is the average of two separate experiments, conducted with triplicate determinations. Data are presented as Mean±SEM of the normalized adherence response from two experiments. The IC50 for inhibition of MCP-1 stimulated adherence was generated using a nonlinear inhibition curve fit in GraphPad Prism Version 5.0.

CCL2 (MCP-1) = molecular target: T3, CCL2 (MCP-1) (Homo sapiens, UniProt P41597); assay: Blocking CCL2 (MCP-1) chemotaxis at low concentration (FIG. 3); assay type: cell-based; conditions: compounds at 10^−14 M
T3 construct: endogenous in cells; host or cells: human monocytes
T3 sequence (P41597 1-360 isoform P41597-2): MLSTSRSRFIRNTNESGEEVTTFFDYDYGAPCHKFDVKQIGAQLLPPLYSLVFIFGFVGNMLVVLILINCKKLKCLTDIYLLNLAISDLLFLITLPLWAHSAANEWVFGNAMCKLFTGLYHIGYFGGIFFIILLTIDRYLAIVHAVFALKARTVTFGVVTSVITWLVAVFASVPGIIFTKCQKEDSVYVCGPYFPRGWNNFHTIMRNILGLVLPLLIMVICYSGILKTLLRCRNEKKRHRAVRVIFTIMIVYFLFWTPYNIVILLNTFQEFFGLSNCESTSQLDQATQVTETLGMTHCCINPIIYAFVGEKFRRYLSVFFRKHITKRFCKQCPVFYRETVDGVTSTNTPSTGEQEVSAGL
Source text: FIG. 3 illustrates the effects of several all-D amino acid peptides in blocking CCL2 (MCP-1) chemotaxis at low concentration. The amino acid sequences of these peptides are: SSTYR (SEQ ID NO:3), TTSYT (SEQ ID NO:4) and NTSYR (SEQ ID NO:7)
In order to show the generalizability of the all-D-amino acid modifications we synthesized additional examples and tested them for antagonism of chemokines receptors implicated in the subject diseases, FIG. 3
Additional All-D-(Pepntapeptides) from V2 Region Block CCR5/CCR2 Human Monocyte Chemotaxis
In FIG. 3, the effects of RAPs in blocking CCL2 (MCP-1) chemotaxis was illustrated.

TLR4 = TLR4 (human, UniProt O00206 24-839); assay: cell-based or functional assay
Chain of TLR4 (O00206 24-839): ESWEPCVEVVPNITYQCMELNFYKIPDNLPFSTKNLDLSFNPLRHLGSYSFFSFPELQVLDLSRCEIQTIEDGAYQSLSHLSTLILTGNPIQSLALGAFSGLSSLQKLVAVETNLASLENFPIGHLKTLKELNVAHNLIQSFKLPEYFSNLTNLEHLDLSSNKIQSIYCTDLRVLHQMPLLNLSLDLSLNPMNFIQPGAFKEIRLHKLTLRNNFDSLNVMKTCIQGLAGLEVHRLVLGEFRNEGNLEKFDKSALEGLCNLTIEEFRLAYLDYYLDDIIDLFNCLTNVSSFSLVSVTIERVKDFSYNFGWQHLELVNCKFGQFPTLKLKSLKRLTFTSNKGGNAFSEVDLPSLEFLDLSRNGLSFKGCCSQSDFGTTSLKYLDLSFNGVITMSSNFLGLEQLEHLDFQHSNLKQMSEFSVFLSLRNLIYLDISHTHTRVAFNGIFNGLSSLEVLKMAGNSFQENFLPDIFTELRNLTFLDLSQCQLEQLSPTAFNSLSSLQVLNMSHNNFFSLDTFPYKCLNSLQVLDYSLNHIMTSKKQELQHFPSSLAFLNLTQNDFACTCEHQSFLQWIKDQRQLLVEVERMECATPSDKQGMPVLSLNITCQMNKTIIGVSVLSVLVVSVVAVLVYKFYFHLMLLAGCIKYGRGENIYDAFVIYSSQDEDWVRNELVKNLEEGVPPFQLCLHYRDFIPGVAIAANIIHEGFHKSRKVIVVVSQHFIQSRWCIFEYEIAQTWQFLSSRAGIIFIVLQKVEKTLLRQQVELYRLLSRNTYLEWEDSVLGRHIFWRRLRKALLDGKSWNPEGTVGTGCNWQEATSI

T1 sequence (P41597 whole entry): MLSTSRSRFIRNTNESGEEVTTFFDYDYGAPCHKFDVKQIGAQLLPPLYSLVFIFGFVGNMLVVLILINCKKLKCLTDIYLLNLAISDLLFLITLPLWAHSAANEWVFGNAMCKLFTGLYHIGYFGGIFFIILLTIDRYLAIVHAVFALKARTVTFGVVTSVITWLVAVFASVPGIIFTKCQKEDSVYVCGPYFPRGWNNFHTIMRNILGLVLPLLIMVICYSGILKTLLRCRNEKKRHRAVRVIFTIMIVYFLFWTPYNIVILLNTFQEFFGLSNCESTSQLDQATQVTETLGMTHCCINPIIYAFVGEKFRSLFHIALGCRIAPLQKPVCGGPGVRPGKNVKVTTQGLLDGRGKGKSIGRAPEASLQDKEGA
Chain of CCR2 (P41597 whole entry): as above
T2 sequence (P41597 whole entry): as above
Chain of CCR5 (P51681 whole entry): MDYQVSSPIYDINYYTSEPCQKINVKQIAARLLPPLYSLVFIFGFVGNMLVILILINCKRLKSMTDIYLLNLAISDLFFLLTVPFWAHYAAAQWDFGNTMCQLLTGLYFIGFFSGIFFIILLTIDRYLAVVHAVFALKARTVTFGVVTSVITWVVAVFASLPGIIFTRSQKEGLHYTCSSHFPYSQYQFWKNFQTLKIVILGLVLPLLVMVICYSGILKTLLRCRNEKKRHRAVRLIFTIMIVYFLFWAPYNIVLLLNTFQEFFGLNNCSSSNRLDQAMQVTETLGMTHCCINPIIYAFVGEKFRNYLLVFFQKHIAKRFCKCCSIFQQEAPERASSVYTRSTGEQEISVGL

## C[C@H](O)[C@@H](N)C(=O)N[C@@H](C(=O)N[C@H](CC(N)=O)C(=O)N[C@H](Cc1ccc(O)cc1)C(=O)N[C@@H](C(=O)O)[C@H](C)O)[C@H](C)O [RAP-103, All-D-TTNYT]
[1]
  CCL2 change: decrease
  CCL3 change: decrease
  CCR2 change: decrease
  CCR5 change: decrease
  MCP-1 change: decrease
  MIP-1α change: decrease
  TNFα change: decrease
[2]; 1 mg/kg, male rat
  time of peak levels in plasma: 10 to 15 min
[2]; intravenous and oral, 1 mg/kg, male rat
  tolerability of dose administrations: well tolerated
[2]; male, Sprague-Dawley, rat, plasma, po, 1 mg/kg, oral 1 mg/kg, 0.25 h, individual animals 004M, 005M, 006M, read-out: plasma concentration
  level at 0.25 h: 6.42 ng/mL
[2]; male, Sprague-Dawley, rat, plasma, po, 1 mg/kg, oral 1 mg/kg, 0.5 h, individual animals 004M, 005M, 006M, read-out: plasma concentration
  level at 0.5 h: 10.2 ng/mL
[2]; male, Sprague-Dawley, rat, plasma, po, 1 mg/kg, oral 1 mg/kg, 2 h, individual animals 004M, 005M, 006M, read-out: plasma concentration
  level at 2 h: 12 ng/mL
[2]; male, Sprague-Dawley, rat, plasma, po, 1 mg/kg, oral 1 mg/kg, 4 h, individual animals 004M, 005M, 006M, read-out: plasma concentration
  level at 4 h: 9.09 ng/mL
[2]; male, Sprague-Dawley, rat, plasma, po, 1 mg/kg, oral 1 mg/kg, 8 h, individual animals 004M, 005M, 006M, read-out: plasma concentration
  level at 8 h: 6.67 ng/mL
[2]; oral 1 mg/kg, male rat, 0.083 h, individual animals 004M, 005M, 006M
  plasma concentration: <LLOQ
[2]; oral 1 mg/kg, male rat, 0.25 h, individual animals 004M, 005M, 006M, 1 mg/kg
  plasma concentration: <LLOQ
[2]; oral 1 mg/kg, male rat, 1 h, individual animals 004M, 005M, 006M
  plasma concentration: <LLOQ
[2]; oral 1 mg/kg, male rat, 2 h, individual animals 004M, 005M, 006M, 1 mg/kg
  plasma concentration: <LLOQ
[2]; oral 1 mg/kg, male rat, 4 h, individual animals 004M, 005M, 006M, 1 mg/kg
  plasma concentration: <LLOQ
[2]; oral 1 mg/kg, male rat, 8 h, individual animals 004M, 005M, 006M, 1 mg/kg
  plasma concentration: <LLOQ
[2]; oral 1 mg/kg, male rat, 12 h, individual animals 004M, 005M, 006M
  plasma concentration: <LLOQ
CCR2
  blocking of MCP-1-elicited chemotaxis: potently blocking
[3]
  IL-1β change: decrease
  IL-6 change: decrease
[4]; 0.2-1 mg/kg, days 8 to 12
  already established hypersensitivity: reverses
[4]; oral 0.05-1 mg/kg for 7 days
  development of thermal hyperalgesia: inhibits the development
  mechanical allodynia: fully prevents
[4]; peripheral nerve injury
  monocyte infiltration: reduce
  spinal microglial activation: reduce
CCR5
  blocking of MIP-1β-elicited chemotaxis: potently blocking

## D-ala1-peptide T-amide [RAP-101]
Inflammatory cytokines
  IL-1 change: decrease
  IL-6 change: decrease
  IL-8 change: decrease
  TNFα change: decrease

## ETWYS ([dE][dT][dW][dY][dS])
CCR2 (MCP-1)
  inhibition of CCR2 (MCP-1) elicited chemotaxis: potently block

## IDNYT ([dI][dD][dN][dY][dT])
MCP-1/CCR2
  blocking of MCP-1 elicited adhesion to human fibronectin: potently blocking
CCR2 (MCP-1)
  inhibition of CCR2 (MCP-1) elicited chemotaxis: potently block

## NTRYR
CCR2 (MCP-1)
  inhibition of CCR2 (MCP-1) elicited chemotaxis: potently block

## NTSYG ([dN][dT][dS][dY]G; not fully specified (residue 5))
CCR2 (MCP-1)
  inhibition of CCR2 (MCP-1) elicited chemotaxis: potently block

## NTSYR ([dN][dT][dS][dY][dR])
CCL2 (MCP-1)
  blocking CCL2 (MCP-1) chemotaxis: retain potency

## SSTYR ([dS][dS][dT][dY][dR])
CCL2 (MCP-1)
  blocking CCL2 (MCP-1) chemotaxis: retain potency

## TTSYT ([dT][dT][dS][dY][dT])
CCL2 (MCP-1)
  blocking CCL2 (MCP-1) chemotaxis: retain potency

## [dT][dT][dN][dY][dT] [all-D[TTNYT] (RAP-103)]
TLR4
  IC50 for inhibition of LPS-induced TNFα production in monocyte-derived iDC: ~0.1 pM
